Molecular target: CDK2 (human) (UniProt P24941)
Experiment: Enzyme Assay

Compound	Ki [nM]
C#Cc1c(-c2nc(Nc3n[nH]c(C)n3)c3ccccc3n2)ccc2[nH][nH]c(=O)c12	< 1000
CCc1cc(Nc2cc(C)[nH]n2)nc(C(C)(C)c2ccc3c(=O)[nH][nH]c3c2)n1	< 1000
O=c1[nH][nH]c2cc(C(F)(F)F)c(-c3cc4cccnc4c(Nc4nc[nH]n4)n3)cc12	< 1000
O=c1[nH][nH]c2ccc(-c3nc(Nc4n[nH]c5cc(=O)n(-c6ccccc6)nc45)c4ccccc4n3)cc12	< 1000
CN(C)CCNC(=O)c1cc(Nc2n[nH]c3ccccc23)nc(Sc2ccc3c(=O)[nH][nH]c3c2)n1	< 1000
O=c1[nH][nH]c2ccc(C3COCC(Nc4cc(C5CC5)[nH]n4)C3)cc12 (stereo not drawn)	< 1000
O=c1[nH][nH]c2cc([C@@H]3C[C@H]3c3nc(Nc4n[nH]c5ccc(F)cc45)c4ccccc4n3)ccc12	< 1000
COC(=O)c1cc(Nc2cc(C)[nH]n2)nc(Sc2ccc3c(=O)[nH][nH]c3c2)n1	< 1000
O=c1[nH][nH]c2cc(Nc3ncc(N4CCOCC4)c(Nc4cc(C5CC5)[nH]n4)n3)ccc12	< 1000
O=c1[nH][nH]c2cc(NC3COCC(Nc4ccccn4)C3)ccc12 (stereo not drawn)	< 1000
O=C(CCNc1ccccn1)Nc1ccc2c(=O)[nH][nH]c2c1	< 1000
Cc1cc(Nc2cc(CSc3ccc4c(=O)[nH][nH]c4c3)nc3ccccc23)n[nH]1	< 1000
CCc1cc(Nc2cc(C)[nH]n2)nc(-c2ccc3[nH][nH]c(=O)c3c2)n1	< 1000
O=c1[nH][nH]c2cc(Oc3nc(Nc4cc(C5CC5)[nH]n4)cc(N4CCOCC4)n3)ccc12	< 1000
Cc1cnc(CC2CCCC2CCc2ccc3c(=O)[nH][nH]c3c2)s1 (stereo not drawn)	< 1000
O=c1[nH][nH]c2ccc(-c3nc(Nc4n[nH]c5c4CCCC5)c4ccccc4n3)c(C(F)(F)F)c12	< 1000
Cn1cnc(NC2CCCC2COc2ccc3c(=O)[nH][nH]c3c2)c1 (stereo not drawn)	< 1000
O=C(CC(=O)Oc1ccc2c(=O)[nH][nH]c2c1)Nc1cc(C2CC2)[nH]n1	< 1000
O=c1[nH][nH]c2cc(Nc3nc(Cl)nc(Nc4cc(C5CC5)[nH]n4)n3)ccc12	< 1000
O=c1[nH][nH]c2cc(C(F)(F)F)c(-c3cc(-c4ccncc4)nc(Nc4cc(C5CC5)[nH]n4)n3)cc12	< 1000
NC(=O)c1cc(-c2ncnc(Nc3n[nH]c4c3CCC(=O)C4)n2)cc2c(=O)[nH][nH]c12	< 1000
O=c1[nH][nH]c2ccc(-c3nc(Nc4n[nH]c5ccccc45)cc(-c4ccccn4)n3)c(C(F)(F)F)c12	< 1000
Cc1cccc2nc(Nc3ccc4c(=O)[nH][nH]c4c3)nc(Nc3cc(C4CC4)[nH]n3)c12	< 1000
O=c1[nH][nH]c2cc(SC3CCC(Nc4nccnn4)C3)ccc12 (stereo not drawn)	< 1000

Compound	Ki [nM]
NCCc1cc(Nc2n[nH]c3ccccc23)nc(-c2ccc3[nH][nH]c(=O)c3c2C(F)(F)F)n1	< 1000
Cc1cc(Nc2cc(C3CC3)[nH]n2)nc(Nc2ccc3c(=O)[nH][nH]c3c2)n1	< 1000
Cc1cc(Nc2nc(Sc3ccc4c(=O)[nH][nH]c4c3)nc3cc(OCCCN(C)C)ccc23)n[nH]1	< 1000
O=c1[nH][nH]c2cc(NCCONc3ccccn3)ccc12	< 1000
O=c1[nH][nH]c2cc(Nc3nc(Nc4cc(C5CC5)[nH]n4)c4cc(N5CCCCC5)ccc4n3)ccc12	< 1000
O=c1[nH][nH]c2ccc(-c3cc(Nc4n[nH]c5ccccc45)nnc3NCCN3CCCCC3)c(C(F)(F)F)c12	< 1000
O=c1[nH][nH]c2cc(Oc3cc4ccccc4c(Nc4n[nH]c5ccccc45)n3)ccc12	< 1000
O=c1[nH][nH]c2ccc(-c3nc4c(c(Nc5n[nH]c6ccc(F)cc56)n3)CCNC4)c(C(F)(F)F)c12	< 1000
O=C(CCCc1ccc2c(=O)[nH][nH]c2c1)Nc1ccccn1	< 1000
O=c1[nH][nH]c2cc(Oc3nccc(Nc4cc(C5CC5)[nH]n4)n3)ccc12	< 1000
NCCOc1cc(Nc2n[nH]c3ccccc23)nc(-c2cc3c(=O)[nH][nH]c3cc2C(F)(F)F)c1	< 1000
O=c1[nH][nH]c2cc(NCCCNc3cc(C4CC4)[nH]n3)ccc12	< 1000
Cc1cnc(NC2CCCC(SCc3ccc4c(=O)[nH][nH]c4c3)C2)s1 (stereo not drawn)	< 1000
O=c1[nH][nH]c2cc(SCCC(Nc3cc(C4CC4)[nH]n3)c3ccccc3)ccc12 (stereo not drawn)	< 1000
Cc1cc(Nc2cc(-c3c(C)cccc3C)nc(Sc3ccc4c(=O)[nH][nH]c4c3)n2)n[nH]1	< 1000
Cc1cc(Nc2cc(-c3ccco3)[nH]n2)nc(Nc2ccc3c(=O)[nH][nH]c3c2)n1	< 1000
Cc1cc(Nc2cc(COCCN(C)C)nc(Sc3ccc4c(=O)[nH][nH]c4c3)n2)n[nH]1	< 1000
O=c1[nH][nH]c2cc(NC(CCNc3cc(C4CC4)[nH]n3)Cc3ccccc3)ccc12 (stereo not drawn)	< 1000
Cc1cc(Nc2cc(C3CC3)[nH]n2)nc(Oc2ccc3c(=O)[nH][nH]c3c2)n1	< 1000
Cc1cc(Nc2cc(-c3ccco3)[nH]n2)nc(-c2ccc3[nH][nH]c(=O)c3c2)n1	< 1000
Cn1cnc(NC(=O)CCOc2ccc3c(=O)[nH][nH]c3c2)c1	< 1000
O=c1[nH][nH]c2cc(CCC3CCCC3Nc3ccccn3)ccc12 (stereo not drawn)	< 1000
O=c1[nH][nH]c2ccc(-c3nnc(C4CC4)c(Nc4n[nH]c5ccccc45)n3)c(C(F)(F)F)c12	< 1000
O=c1[nH][nH]c2cc(Nc3nc(Nc4cc(C5CC5)[nH]n4)ccc3[N+](=O)[O-])ccc12	< 1000

From the Kinase Knowledgebase extract (Sharma et al. 2016)
